Assay [1] relates to Canavalia ensiformis. Nature of the assay: Inhibition of jack bean alpha mannosidase. Particulars: concentration not given here.
Assay [2] addresses T1, Beta-galactosidase (Bos taurus) (UniProt Q58D55).
T1 sequence (whole entry): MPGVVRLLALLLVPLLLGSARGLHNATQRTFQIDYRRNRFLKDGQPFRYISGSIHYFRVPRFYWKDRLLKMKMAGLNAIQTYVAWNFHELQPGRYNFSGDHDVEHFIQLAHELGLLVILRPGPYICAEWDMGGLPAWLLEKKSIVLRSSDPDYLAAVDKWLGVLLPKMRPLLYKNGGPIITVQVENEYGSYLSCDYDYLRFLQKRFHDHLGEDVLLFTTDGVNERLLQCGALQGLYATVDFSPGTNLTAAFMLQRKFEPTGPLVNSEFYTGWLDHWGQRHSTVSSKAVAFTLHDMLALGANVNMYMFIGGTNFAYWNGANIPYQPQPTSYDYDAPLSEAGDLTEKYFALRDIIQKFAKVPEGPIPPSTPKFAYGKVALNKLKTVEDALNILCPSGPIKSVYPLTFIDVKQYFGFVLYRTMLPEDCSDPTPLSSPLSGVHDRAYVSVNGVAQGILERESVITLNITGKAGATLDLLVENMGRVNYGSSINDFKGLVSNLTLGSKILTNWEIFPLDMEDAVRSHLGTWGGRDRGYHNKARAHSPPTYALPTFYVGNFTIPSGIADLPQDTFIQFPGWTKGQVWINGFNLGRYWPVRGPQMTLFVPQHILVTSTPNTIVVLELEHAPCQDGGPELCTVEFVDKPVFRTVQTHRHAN
Nature of the assay: Inhibition of bovine liver beta galactosidase. Particulars: concentration not given here.

Assay [3] concerns the target Alpha-galactosidase (Coffea arabica) (UniProt Q5DUH8). Nature of the assay: Inhibition of green coffee bean alpha galactosidase. Particulars: concentration not given here.
Assay [4] concerns the target T2, Sucrase-isomaltase, intestinal (Rattus norvegicus, UniProt P23739). As to the kind of experiment: Inhibition of rat intestinal sucrase.
The target in assay [5] is T3, Alpha-amylase (Sus scrofa domesticus) (UniProt Q7M328).
T3 sequence (whole entry): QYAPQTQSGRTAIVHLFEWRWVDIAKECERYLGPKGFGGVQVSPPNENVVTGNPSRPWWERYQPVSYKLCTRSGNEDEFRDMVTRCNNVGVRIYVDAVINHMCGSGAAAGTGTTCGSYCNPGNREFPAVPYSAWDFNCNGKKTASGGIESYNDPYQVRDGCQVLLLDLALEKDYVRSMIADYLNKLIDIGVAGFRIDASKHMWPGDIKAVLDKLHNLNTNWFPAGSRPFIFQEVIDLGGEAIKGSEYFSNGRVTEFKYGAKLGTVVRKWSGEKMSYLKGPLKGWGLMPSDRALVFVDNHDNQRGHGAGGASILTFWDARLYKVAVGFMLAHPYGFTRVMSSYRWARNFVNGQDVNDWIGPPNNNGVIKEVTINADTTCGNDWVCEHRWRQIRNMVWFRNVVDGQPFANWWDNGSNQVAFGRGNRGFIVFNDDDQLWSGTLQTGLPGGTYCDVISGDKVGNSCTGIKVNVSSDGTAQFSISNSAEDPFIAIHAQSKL
Nature of the assay: Inhibition of pig pancreas alpha amylase. As to conditions: concentration not given here.

Assay [6] has as its target T2, Sucrase-isomaltase, intestinal. As to the kind of experiment: Inhibition of sucrose hydrolyzing activity of rat intestinal alpha glucosidase.
Assay [7] concerns Prunus dulcis. As to the kind of experiment: Inhibition of almond beta glucosidase. Particulars: concentration not given here.
Assay [8] addresses Sucrase-isomaltase, intestinal (Rattus norvegicus) (UniProt P23739). Nature of the assay: Inhibition of rat intestinal sucrase at 500 uM.
Assay [9] shares this target. Nature of the assay: Inhibition of rat intestinal isomaltase at 500 uM.

The structures appear in SMILES notation.

T2 sequence (P23739 1-1013 limits assumed): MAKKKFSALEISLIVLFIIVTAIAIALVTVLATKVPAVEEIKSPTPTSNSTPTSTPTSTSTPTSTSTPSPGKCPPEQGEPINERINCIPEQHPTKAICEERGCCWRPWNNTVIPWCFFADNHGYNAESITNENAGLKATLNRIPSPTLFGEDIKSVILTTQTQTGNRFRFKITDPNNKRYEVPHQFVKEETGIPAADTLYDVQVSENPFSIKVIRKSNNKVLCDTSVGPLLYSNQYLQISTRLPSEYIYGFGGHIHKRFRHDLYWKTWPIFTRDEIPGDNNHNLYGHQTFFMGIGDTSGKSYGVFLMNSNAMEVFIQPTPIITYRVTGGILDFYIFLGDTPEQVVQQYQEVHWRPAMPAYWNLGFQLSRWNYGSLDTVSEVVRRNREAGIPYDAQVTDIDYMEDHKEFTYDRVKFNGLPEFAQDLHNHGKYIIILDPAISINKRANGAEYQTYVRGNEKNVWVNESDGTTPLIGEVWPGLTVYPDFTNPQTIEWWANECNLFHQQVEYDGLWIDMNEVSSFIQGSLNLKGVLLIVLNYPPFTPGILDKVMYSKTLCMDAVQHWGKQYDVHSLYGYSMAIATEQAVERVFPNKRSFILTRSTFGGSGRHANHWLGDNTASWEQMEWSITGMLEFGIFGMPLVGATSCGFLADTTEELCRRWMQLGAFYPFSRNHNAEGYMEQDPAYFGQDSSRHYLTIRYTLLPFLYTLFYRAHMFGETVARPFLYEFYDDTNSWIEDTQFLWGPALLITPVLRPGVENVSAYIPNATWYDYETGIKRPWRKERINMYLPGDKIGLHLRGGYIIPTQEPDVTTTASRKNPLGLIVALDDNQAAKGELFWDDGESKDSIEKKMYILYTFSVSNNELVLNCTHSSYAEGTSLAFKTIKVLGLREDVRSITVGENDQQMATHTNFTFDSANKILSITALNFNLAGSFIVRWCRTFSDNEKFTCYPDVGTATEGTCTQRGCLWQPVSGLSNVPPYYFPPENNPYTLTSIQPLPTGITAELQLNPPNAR
T2 sequence (P23739 1014-1841 limits assumed): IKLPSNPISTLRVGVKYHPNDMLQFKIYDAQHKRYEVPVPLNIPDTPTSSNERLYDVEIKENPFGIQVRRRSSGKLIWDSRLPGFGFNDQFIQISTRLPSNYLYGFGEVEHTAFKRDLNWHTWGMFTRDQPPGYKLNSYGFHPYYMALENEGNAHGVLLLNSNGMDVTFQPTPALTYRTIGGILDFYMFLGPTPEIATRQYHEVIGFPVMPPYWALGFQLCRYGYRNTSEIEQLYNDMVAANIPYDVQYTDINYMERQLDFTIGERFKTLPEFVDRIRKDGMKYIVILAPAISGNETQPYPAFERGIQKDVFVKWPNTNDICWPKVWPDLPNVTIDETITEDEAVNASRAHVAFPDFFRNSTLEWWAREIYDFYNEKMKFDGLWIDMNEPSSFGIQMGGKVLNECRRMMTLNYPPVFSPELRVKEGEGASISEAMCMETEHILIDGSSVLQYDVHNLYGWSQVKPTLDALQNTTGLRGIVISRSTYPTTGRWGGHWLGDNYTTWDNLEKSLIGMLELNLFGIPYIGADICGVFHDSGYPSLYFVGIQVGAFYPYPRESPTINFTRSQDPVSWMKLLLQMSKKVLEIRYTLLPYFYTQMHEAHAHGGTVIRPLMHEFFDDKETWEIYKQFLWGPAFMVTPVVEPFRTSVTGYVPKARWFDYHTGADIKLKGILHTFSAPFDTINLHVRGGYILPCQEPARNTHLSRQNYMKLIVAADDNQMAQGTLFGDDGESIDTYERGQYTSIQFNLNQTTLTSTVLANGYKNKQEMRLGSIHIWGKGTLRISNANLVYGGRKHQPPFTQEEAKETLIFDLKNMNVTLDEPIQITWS
Sequence of Sucrase-isomaltase, intestinal (Rattus norvegicus) (P23739 1-1013 limits assumed): as the sequence (P23739 1-1013 limits assumed) above
Sequence of Sucrase-isomaltase, intestinal (Rattus norvegicus) (P23739 1014-1841 limits assumed): as the sequence (P23739 1014-1841 limits assumed) above
Sequence of Alpha-galactosidase (Coffea arabica) (Q5DUH8 as listed by the source): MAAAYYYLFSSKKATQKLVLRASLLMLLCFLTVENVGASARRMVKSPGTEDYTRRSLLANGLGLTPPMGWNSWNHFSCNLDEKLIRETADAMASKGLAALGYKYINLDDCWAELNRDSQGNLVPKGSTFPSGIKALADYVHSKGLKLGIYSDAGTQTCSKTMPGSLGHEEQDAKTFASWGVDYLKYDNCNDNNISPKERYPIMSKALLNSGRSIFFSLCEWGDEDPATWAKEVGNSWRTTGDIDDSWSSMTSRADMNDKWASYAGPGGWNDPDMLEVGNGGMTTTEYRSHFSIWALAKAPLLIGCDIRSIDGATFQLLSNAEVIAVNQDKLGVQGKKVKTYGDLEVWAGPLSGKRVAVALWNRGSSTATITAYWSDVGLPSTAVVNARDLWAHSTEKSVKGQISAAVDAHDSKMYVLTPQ

Regarding `Nc1c(O)cccc1O`, the inhibition came to 3% in [1]; 4% in assay [2]; 8% in [3]; 11% in assay [5]; 12% in assay [7]. This compound also gave an IC50 in [4] of 4.2 µM. In [6], this compound gave a Ki of 4.2 µM.
Take `CC(=O)c1ccc(O)c(N)c1O`: the inhibition in assay [1] came to 4%; in assay [2], 5%; in assay [3] it was 10%; in assay [5], 15%; in assay [7], 7%. This compound displayed an IC50 in assay [4] of 3.6 µM.
As for `Nc1ccc(O)cc1O`, the inhibition in assay [8] turned out to be 46%. Also, the IC50 in assay [4] was above 500 µM.
`O=c1cc(-c2ccccc2)oc2cc(O)c(O)c(O)c12` [BAICALEIN] yielded an IC50 in assay [4] of 52 µM.
`Oc1cccc(O)c1O` [PYROGALLOL] yielded an inhibition in assay [8] of 42%. Moreover, the IC50 in assay [4] is above 500 µM.
As for `N[C@H]1[C@H](O)CCC[C@@H]1O`, the inhibition in assay [8] turned out to be 10%. In assay [4], this compound had an IC50 above 500 µM.
As for `Nc1c(O)cc2oc(-c3ccccc3)cc(=O)c2c1O`, the inhibition in assay [1] came to 7%; in assay [9], 32%; in assay [2], 10%; in assay [3], 6%; in [5], 12%; in [7] it was 19%. In assay [4], 2.4 µM corresponded to half-maximal inhibition (IC50).

As usually defined, the inhibition is the percentage by which the read-out fell short of the control. The IC50 is the concentration that inhibits the measured activity by half. As usually defined, the Ki is a measure of affinity in units of concentration, obtained from inhibition or displacement. A lower Ki goes with a stronger hold on the target.

The values above are taken from ChEMBL document CHEMBL1143181, “2-Aminoresorcinol is a potent alpha-glucosidase inhibitor” (Bioorg Med Chem Lett, 2008).
